{
  "source": "patent US20070189965A1",
  "about": "“Copper-complex isonitrile positron emission tomography (pet) imaging agent and method” (priority 2004, published 2007)",
  "key": {"[1]": {"experiment": "Stability of I-131 Hippuran vials on storage: percent remaining bound", "type": "physicochemical", "experimental": "As another example, I-131 Hippuran was prepared. The I-131 Hippuran was prepared as follows: 9 vials were prepared of I-131 Hippuran in solution with a radioactive concentration of MIBG of 1 mCi per vial. Each vial had 4 cc. The I-131 in seven of those vials was then stabilized and lyophilized according to the process described in this invention. One vial was frozen and maintained at a temperature of −10 degrees, and another vial was maintained room temperature. Room temperature was selected because Hippuran is thought to be stable at room temperature even in conjunction with a radioisotope. […]"}, "[2]": {"experiment": "Stability of I-131 MIBG vials on storage: percent of iodine remaining bound", "type": "physicochemical", "experimental": "In order to establish the advantages of the novel process and resulting composition, a series of tests were run utilizing meta iodo benzyl guanidine (MIBG) in which the radionuclide I-131 was the iodine in the MlBG.\nThe MIBG was prepared as follows: eight vials were prepared of MIBG in solution with a radioactive concentration of MIBG of 1 mCi per vial. The MIBG in six of those vials were then stabilized and lyophilized according to the process described in this invention. One vial was frozen and maintained at a temperature of −10 degrees, and another vial was simply refrigerated at approximately 5 degrees.\nSix vials were prepared according to the process in this invention in order to enable several to be reconstituted from the lyophilized state and their activity tallied.\nThe radioactive concentration of MIBG per vial was 1 mCi per vial.\nOne each of the vials was reconstituted after 24, 48, 72 and 168 hours respectively."}, "[3]": {"conditions": "Lyophilized and stabilized per invention, stored at room temp., 0 hours, 1 mCi per vial"}},
  "data": [
    {"smiles": "O=C(O)CNC(=O)c1ccccc1[131I]", "note": "[I-131 Hippuran]", "values": [
      {"measurement": "percent of Hippuran remaining bound to the 1-123", "setting": "[1]; Frozen −10°, 0 hours", "value": 98, "unit": "%"},
      {"measurement": "percent of Hippuran remaining bound to the 1-123", "setting": "[1]; Frozen −10°, 24 hrs", "value": 97.8, "unit": "%"},
      {"measurement": "percent of Hippuran remaining bound to the 1-123", "setting": "[1]; Frozen −10°, 48 hrs", "value": 97, "unit": "%"},
      {"measurement": "percent of Hippuran remaining bound to the 1-123", "setting": "[1]; Frozen −10°, 72 hrs", "value": 94, "unit": "%"},
      {"measurement": "percent of Hippuran remaining bound to the 1-123", "setting": "[1]; Frozen −10°, 96 hrs", "value": 92.5, "unit": "%"},
      {"measurement": "percent of Hippuran remaining bound to the 1-123", "setting": "[1]; Frozen −10°, 120 hrs", "value": 91},
      {"measurement": "percent of Hippuran remaining bound to the 1-123", "setting": "[1]; [3]", "value": 98, "unit": "%"},
      {"measurement": "percent of Hippuran remaining bound to the 1-123", "setting": "[1]; Lyophilized and stabilized per invention, stored at room temp., 24 hrs", "value": 98.4, "unit": "%"},
      {"measurement": "percent of Hippuran remaining bound to the 1-123", "setting": "[1]; Lyophilized and stabilized per invention, stored at room temp., 48 hrs", "value": 98.6, "unit": "%"},
      {"measurement": "percent of Hippuran remaining bound to the 1-123", "setting": "[1]; Lyophilized and stabilized per invention, stored at room temp., 72 hrs", "value": 98, "unit": "%"},
      {"measurement": "percent of Hippuran remaining bound to the 1-123", "setting": "[1]; Lyophilized and stabilized per invention, stored at room temp., 96 hrs", "value": 98.4, "unit": "%"},
      {"measurement": "percent of Hippuran remaining bound to the 1-123", "setting": "[1]; Lyophilized and stabilized per invention, stored at room temp., 120 hrs", "value": 98.5, "unit": "%"},
      {"measurement": "percent of Hippuran remaining bound to the 1-123", "setting": "[1]; Room Temp. (solution), 0 hours", "value": 98, "unit": "%"},
      {"measurement": "percent of Hippuran remaining bound to the 1-123", "setting": "[1]; Room Temp. (solution), 24 hrs", "value": 96, "unit": "%"},
      {"measurement": "percent of Hippuran remaining bound to the 1-123", "setting": "[1]; Room Temp. (solution), 48 hrs", "value": 95, "unit": "%"},
      {"measurement": "percent of Hippuran remaining bound to the 1-123", "setting": "[1]; Room Temp. (solution), 72 hrs", "value": 94.5, "unit": "%"},
      {"measurement": "percent of Hippuran remaining bound to the 1-123", "setting": "[1]; Room Temp. (solution), 96 hrs", "value": 92, "unit": "%"},
      {"measurement": "percent of Hippuran remaining bound to the 1-123", "setting": "[1]; Room Temp. (solution), 120 hrs", "value": 90, "unit": "%"}
    ]},
    {"smiles": "N=C(N)NCc1cccc([131I])c1", "note": "[MIBG, meta iodo benzyl guanidine]", "values": [
      {"measurement": "percent of iodine remaining bound to the MIBG", "setting": "[2]; Frozen −10°, 0 hours", "value": 96.3, "unit": "%"},
      {"measurement": "percent of iodine remaining bound to the MIBG", "setting": "[2]; Frozen −10°, 24 hours", "value": 94, "unit": "%"},
      {"measurement": "percent of iodine remaining bound to the MIBG", "setting": "[2]; Frozen −10°, 48 hours", "value": 91, "unit": "%"},
      {"measurement": "percent of iodine remaining bound to the MIBG", "setting": "[2]; Frozen −10°, 72 hours", "value": 84, "unit": "%"},
      {"measurement": "percent of iodine remaining bound to the MIBG", "setting": "[2]; Frozen −10°, 168 hours (1 wk.)", "value": 72, "unit": "%"},
      {"measurement": "percent of iodine remaining bound to the MIBG", "setting": "[2]; [3]", "value": 96.3, "unit": "%"},
      {"measurement": "percent of iodine remaining bound to the MIBG", "setting": "[2]; Lyophilized and stabilized per invention, stored at room temp., 24 hours", "value": 97, "unit": "%"},
      {"measurement": "percent of iodine remaining bound to the MIBG", "setting": "[2]; Lyophilized and stabilized per invention, stored at room temp., 48 hours", "value": 96.6, "unit": "%"},
      {"measurement": "percent of iodine remaining bound to the MIBG", "setting": "[2]; Lyophilized and stabilized per invention, stored at room temp., 72 hours", "value": 96.2, "unit": "%"},
      {"measurement": "percent of iodine remaining bound to the MIBG", "setting": "[2]; Lyophilized and stabilized per invention, stored at room temp., 168 hours (1 wk.)", "value": 95.9, "unit": "%"},
      {"measurement": "percent of iodine remaining bound to the MIBG", "setting": "[2]; Refrigerated ˜+5°, 0 hours", "value": 96.3, "unit": "%"},
      {"measurement": "percent of iodine remaining bound to the MIBG", "setting": "[2]; Refrigerated ˜+5°, 24 hours", "value": 92, "unit": "%"},
      {"measurement": "percent of iodine remaining bound to the MIBG", "setting": "[2]; Refrigerated ˜+5°, 48 hours", "value": 85, "unit": "%"},
      {"measurement": "percent of iodine remaining bound to the MIBG", "setting": "[2]; Refrigerated ˜+5°, 72 hours", "value": 77, "unit": "%"},
      {"measurement": "percent of iodine remaining bound to the MIBG", "setting": "[2]; Refrigerated ˜+5°, 168 hours (1 wk.)", "value": 55, "unit": "%"}
    ]}
  ]
}
